Publication PMC6934184, “Selective DNA-PKcs inhibition extends the therapeutic index of localized radiotherapy and chemotherapy” (The Journal of Clinical Investigation, 2019)

Target: T1, FES (FPS) (Homo sapiens, UniProt P07332)
T1 construct: purchased Thermo Fisher Scientific (Life Technologies) SelectScreen
Experiment: SelectScreen Z'LYTE
Format: biochemical
Outline: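 Percent values come from Thermo SelectScreen profiling of NU5455, combining activity and binding assays. CSF1R was run in Z'LYTE format at Km app ATP, and CAMK1 in Adapta format with ATP listed at 10.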

T1 sequence (P07332 whole entry): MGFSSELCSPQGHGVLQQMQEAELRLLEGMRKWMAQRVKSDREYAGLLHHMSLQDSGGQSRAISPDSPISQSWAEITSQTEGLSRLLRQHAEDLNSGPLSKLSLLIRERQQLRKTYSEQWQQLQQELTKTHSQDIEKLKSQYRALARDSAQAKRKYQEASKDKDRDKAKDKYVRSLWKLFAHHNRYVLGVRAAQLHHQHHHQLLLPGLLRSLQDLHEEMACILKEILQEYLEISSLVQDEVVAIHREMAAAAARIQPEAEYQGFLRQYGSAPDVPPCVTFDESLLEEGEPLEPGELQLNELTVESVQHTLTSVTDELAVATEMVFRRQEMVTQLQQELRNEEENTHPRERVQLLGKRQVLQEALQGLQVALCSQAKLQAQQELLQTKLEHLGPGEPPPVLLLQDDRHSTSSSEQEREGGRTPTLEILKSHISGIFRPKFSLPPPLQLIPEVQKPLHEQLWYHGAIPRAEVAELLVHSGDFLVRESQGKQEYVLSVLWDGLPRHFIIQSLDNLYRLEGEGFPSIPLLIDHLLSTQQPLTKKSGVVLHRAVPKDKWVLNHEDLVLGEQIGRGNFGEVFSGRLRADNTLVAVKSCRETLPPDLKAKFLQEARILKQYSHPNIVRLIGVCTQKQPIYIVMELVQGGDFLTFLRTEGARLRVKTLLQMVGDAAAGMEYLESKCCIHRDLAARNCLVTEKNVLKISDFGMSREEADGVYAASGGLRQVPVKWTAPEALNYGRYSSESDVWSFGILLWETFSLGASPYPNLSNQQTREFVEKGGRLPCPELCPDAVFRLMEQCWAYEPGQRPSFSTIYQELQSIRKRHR

**Q.** Which inhibition at 1 µM does the source give for `CN(C(=O)CN1CCOCC1)c1ccc2sc3c(-c4cccc5c(=O)cc(N6CC7CCC(C6)O7)oc45)cccc3c2c1` [NU5455] here?
**A.** 10.4%
